Results from article PMC5007552, “The hVps34‐SGK3 pathway alleviates sustained PI3K/Akt inhibition by stimulating mTORC1 and tumour growth” (The EMBO Journal, 2016).

How the values were obtained:
S6K1 = S6K1 (Homo sapiens, UniProt P23443); assay: IC50 on recombinant S6K1 (p70S6K); assay type: biochemical; conditions: Fig 5B / Appendix Fig S1B, recombinant kinase, unit inferred
Method: (§1) The result for each kinase is presented as a mean kinase activity of the reaction taken in triplicate relative to a control reaction where the inhibitors were omitted. […] SGK3 was immunoprecipitated from cell lysates and subjected to in vitro kinase assay by measuring phosphorylation of the Crosstide substrate peptide in the presence of 0.1 mM [γ‐^32P]ATP in a 30 min 30°C reaction (upper panel). Kinase reactions are presented as means ± SD for triplicate reaction.
(§2) Appendix Figure S1. […] (A) Chemical struc tures of
(§3) Sano/f_i-14g, -14i and -14n compounds. (B) IC50 values of inhibitors on indicated recombinant k inases. […]

PKBa = PKBa (Homo sapiens, UniProt P31749); assay: IC50 on recombinant PKBa (Akt1); assay type: biochemical; conditions: Fig 5B / Appendix Fig S1B, recombinant kinase, unit inferred
Sequence of PKBa (P31749 whole entry): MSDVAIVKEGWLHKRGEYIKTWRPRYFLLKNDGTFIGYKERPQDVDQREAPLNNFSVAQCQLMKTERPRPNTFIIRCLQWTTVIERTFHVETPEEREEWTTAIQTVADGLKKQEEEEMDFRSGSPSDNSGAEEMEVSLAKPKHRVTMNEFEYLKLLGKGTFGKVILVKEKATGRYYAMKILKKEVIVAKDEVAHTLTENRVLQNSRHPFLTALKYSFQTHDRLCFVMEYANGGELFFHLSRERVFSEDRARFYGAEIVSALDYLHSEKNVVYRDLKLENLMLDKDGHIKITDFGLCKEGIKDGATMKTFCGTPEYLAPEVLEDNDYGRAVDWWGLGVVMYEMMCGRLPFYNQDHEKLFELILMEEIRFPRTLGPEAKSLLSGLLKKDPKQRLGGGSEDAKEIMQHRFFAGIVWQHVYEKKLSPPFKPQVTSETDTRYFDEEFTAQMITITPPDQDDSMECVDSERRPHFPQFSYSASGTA
Method: as §1, §2, §3

MLK1 = MLK1 (Homo sapiens, UniProt P80192); assay: IC50 on recombinant MLK1; assay type: biochemical; conditions: Fig 5B / Appendix Fig S1B, recombinant kinase, unit inferred
Sequence of MLK1 (P80192 whole entry, species assumed): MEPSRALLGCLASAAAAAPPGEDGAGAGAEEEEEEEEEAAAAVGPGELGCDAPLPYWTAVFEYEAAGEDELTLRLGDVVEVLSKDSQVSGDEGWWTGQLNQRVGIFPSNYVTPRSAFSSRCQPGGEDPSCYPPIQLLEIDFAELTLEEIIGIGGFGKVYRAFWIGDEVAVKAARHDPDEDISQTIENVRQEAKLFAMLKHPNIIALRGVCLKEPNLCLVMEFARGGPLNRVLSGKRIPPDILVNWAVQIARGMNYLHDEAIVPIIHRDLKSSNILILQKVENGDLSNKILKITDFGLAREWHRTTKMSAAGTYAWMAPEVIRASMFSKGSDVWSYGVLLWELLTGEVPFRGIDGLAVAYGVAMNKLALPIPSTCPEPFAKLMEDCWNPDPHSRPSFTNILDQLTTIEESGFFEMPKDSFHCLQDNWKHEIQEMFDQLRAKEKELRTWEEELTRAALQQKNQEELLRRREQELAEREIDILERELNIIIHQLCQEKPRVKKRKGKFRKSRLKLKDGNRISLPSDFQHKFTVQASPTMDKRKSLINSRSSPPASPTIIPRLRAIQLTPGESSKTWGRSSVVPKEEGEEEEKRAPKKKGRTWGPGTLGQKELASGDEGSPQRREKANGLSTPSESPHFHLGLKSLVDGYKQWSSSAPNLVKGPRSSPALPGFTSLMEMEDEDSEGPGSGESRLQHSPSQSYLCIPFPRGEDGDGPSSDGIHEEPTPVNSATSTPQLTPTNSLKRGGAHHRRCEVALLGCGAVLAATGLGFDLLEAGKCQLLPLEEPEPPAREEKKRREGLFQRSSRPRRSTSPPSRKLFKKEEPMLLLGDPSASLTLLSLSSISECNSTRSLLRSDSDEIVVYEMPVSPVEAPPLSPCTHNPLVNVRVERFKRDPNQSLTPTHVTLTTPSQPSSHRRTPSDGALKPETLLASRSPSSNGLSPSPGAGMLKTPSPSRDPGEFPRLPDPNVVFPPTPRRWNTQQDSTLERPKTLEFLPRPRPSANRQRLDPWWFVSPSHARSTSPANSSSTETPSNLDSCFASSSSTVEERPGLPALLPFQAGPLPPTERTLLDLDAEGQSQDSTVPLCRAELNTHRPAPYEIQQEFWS
Method: as §1, §2, §3

MLK3 = MLK3 (Homo sapiens, UniProt Q16584); assay: IC50 on recombinant MLK3; assay type: biochemical; conditions: Fig 5B / Appendix Fig S1B, recombinant kinase, unit inferred
Sequence of MLK3 (Q16584 whole entry, species assumed): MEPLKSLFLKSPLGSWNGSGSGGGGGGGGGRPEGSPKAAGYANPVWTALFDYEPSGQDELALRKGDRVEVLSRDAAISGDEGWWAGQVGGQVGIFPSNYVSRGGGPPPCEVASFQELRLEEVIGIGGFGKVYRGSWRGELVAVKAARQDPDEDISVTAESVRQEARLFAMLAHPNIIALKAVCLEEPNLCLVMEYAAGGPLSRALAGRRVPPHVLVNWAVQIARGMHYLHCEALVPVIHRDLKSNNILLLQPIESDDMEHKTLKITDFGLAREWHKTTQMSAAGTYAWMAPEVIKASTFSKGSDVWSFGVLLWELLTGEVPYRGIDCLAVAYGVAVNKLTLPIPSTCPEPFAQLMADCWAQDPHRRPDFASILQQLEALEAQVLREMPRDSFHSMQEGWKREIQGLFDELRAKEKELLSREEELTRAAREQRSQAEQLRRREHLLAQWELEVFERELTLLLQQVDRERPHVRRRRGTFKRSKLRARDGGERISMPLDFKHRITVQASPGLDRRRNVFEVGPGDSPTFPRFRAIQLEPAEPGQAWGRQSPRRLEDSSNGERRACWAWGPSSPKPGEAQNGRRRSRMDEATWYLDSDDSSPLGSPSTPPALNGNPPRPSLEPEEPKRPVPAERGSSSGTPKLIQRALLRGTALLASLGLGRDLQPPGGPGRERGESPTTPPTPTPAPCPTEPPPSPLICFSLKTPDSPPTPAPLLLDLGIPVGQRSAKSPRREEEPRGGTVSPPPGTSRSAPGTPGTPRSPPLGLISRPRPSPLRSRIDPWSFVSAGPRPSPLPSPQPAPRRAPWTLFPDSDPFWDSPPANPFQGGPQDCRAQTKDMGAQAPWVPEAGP
Method: as §1, §2, §3

SGK3 [1] = molecular target: T1, SGK3 (Homo sapiens, UniProt Q96BR1); assay: IC50 on recombinant SGK3; assay type: biochemical; conditions: Fig 5B / Appendix Fig S1B, recombinant kinase, unit inferred
T1 sequence (Q96BR1 1-496): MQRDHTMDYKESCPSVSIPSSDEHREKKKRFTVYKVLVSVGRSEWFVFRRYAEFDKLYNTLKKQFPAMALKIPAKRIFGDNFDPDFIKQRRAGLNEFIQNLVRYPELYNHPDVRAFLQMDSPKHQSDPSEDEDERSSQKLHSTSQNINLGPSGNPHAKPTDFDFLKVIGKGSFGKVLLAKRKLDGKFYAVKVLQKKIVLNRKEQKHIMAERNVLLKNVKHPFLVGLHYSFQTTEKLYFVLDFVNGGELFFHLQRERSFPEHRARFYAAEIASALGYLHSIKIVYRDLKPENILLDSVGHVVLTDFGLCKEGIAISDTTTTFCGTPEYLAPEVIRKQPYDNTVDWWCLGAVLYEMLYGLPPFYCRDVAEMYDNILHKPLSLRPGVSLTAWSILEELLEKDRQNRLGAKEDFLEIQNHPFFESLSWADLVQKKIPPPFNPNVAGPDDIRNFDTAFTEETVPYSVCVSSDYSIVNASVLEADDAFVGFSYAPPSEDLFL
Method: as §1, §2, §3

SGK3 [2] = molecular target: T1, SGK3; assay: Immunoprecipitated endogenous SGK3 kinase activity (Crosstide) and SGK3 phosphorylation from treated cells; assay type: cell-based; set-up: we immunoprecipitated endogenous SGK3 and assessed protein kinase activity; endogenous in cells; host or cells: ZR-75-1; conditions: for SGK3 hydrophobic motif and T-loop phosphorylation and SGK3 kinase activity: ZR-75-1, 0.1 μM, with or without 5 days 1 μM MK-2206; for SGK3 hydrophobic motif and T-loop phosphorylation and SGK3 kinase activity / basal SGK3 activity and phosphorylation: 1 h; for elevated SGK3 kinase activity, T-loop and hydrophobic motif phosphorylation induced by prolonged Class I PI3K or Akt inhibitor treatment: ZR-75-1, 5 days PI3K/Akt inhibitor, then 1 μM VPS34-IN1 or 0.3 μM SAR405 for 1 h; for basal SGK3 activity and phosphorylation: ZR-75-1 in serum, 1 μM VPS34-IN1 or 0.3 μM SAR405
Method: Briefly, SGK3, Akt and S6K1 were immunoprecipitated from 1 mg ZR‐75‐1 cell lysate. Immunoprecipitates were washed in sequence with lysis buffer containing high salt concentration (500 mM NaCl), lysis buffer and Buffer A (50 mM Tris pH 7.5, 0.1 mM EGTA). Kinase activity was assessed by measuring [γ‐^32P]ATP incorporation into Crosstide substrate peptide [[…]]. The reactions were carried in 40 μl total volume containing 0.1 mM [γ‐^32P]ATP (400–1,000 cpm/pmol), 10 mM magnesium acetate and 30 μM Crosstide peptide. Reactions were terminated by adding 10 μl 0.1 M EDTA and spotting 40 μl of the resulting reaction mix on P81 paper, which were immediately immersed into 50 mM orthophosphoric acid. Papers were washed at least five times in 50 mM orthophosphoric acid, rinsed in acetone and air‐dried. Radioactivity was quantified by Cerenkov counting. One unit of enzyme activity was defined as amount of enzyme that catalyses incorporation of 1 nmol of [γ‐^32P]ATP into the substrate over 1 min.

[3] = test system: breast cancer cells that express high levels of SGK1; assay: NDRG1 phosphorylation in breast cancer cells that express high levels of SGK1; assay type: cell-based; conditions: data not shown
[4] = test system: NDRG1 phosphorylation in ZR-75-1 cells; assay: Immunoblot of NDRG1 (Thr346) phosphorylation in breast cancer cells; assay type: cell-based, human; conditions: for phosphorylation of PRAS40 (Thr246) and NDRG1 (Thr346): 1 μM, 1 h, ZR-75-1, CAMA-1 (and T47D for PI3K inhibitors); for concentration reducing NDRG1 phosphorylation to basal levels: ZR-75-1 pre-treated with 1 μM MK-2206 for 5 days, hVps34 inhibitor 1 h
Method: Cell lysates were subjected to immunoblot analysis with the indicated antibodies. • ZR‐75‐1 cells cultured in serum in the absence of Akt inhibitor were treated for 1 h with the indicated concentrations of VPS34‐IN1. […] One hour prior to lysis, the cells were incubated in the presence or absence of 1 μM VPS34‐IN1. SGK3 was immunoprecipitated from lysates and subjected to in vitro kinase assay by measuring phosphorylation of the Crosstide substrate peptide in the presence of 0.1 mM [γ‐^32P]ATP in a 30 min 30°C reaction (upper panel). Kinase reactions are presented as means ± SD for triplicate reaction. Immunoprecipitates (IP) and lysates were analysed by immunoblot with the indicated antibodies. […] SGK3 was immunoprecipitated from the lysates and subjected to in vitro kinase assay as in (C). Kinase reactions are presented as means ± SD for triplicate reaction. Immunoprecipitates (IP) and lysates (lower panel) were also subjected to immunoblot analysis with the indicated antibodies. • ZR‐75‐1 cells were cultured in the absence or presence of 1 μM MK‐2206 for 5 days. Cells were then treated in the absence or presence of 0.1 μM AZD8055 or 0.1 μM rapamycin for 1 h. SGK3 was immunoprecipitated and subjected to in vitro kinase assay as in (C). Kinase reactions are presented as means ± SD for triplicate reaction. The immunoprecipitates (IP) and lysates were analysed with the indicated antibodies.
One hour prior to lysis, the cells were incubated in the presence of absence of 0.3 μM SAR405. SGK3 was immunoprecipitated from lysates and subjected to in vitro kinase assay by measuring phosphorylation of the Crosstide substrate peptide in the presence of 0.1 mM [γ‐^32P]ATP in a 30 min 30°C reaction (upper panel). Kinase reactions are presented as means ± SD for triplicate reaction. Immunoprecipitates (IP) and lysates were also analysed by immunoblot with the indicated antibodies.
as §1
(§4) HEK293 cells were purchased from the American Tissue Culture Collection (ATCC). Cells were cultured in RPMI or DMEM media supplemented with 10% (v/v) foetal bovine serum, 2 mM L‐glutamine, 100 U/ml penicillin and 0.1 mg/ml streptomycin. Inhibitor treatments were carried out as described in figure legends. During 5 days inhibitor treatments, the media was changed after 72‐h intervals. The cells were lysed in buffer containing 50 mM Tris–HCl (pH 7.5), 150 mM NaCl, 1 mM EDTA, 1 mM EGTA, 1 mM sodium orthovanadate, 10 mM sodium glycerophosphate, 10 mM sodium pyrophosphate, 0.27 M sucrose, 0.1% (v/v) 2‐mercaptoethanol, 1 mM benzamidine and 0.1 mM PMSF. Lysates were clarified by centrifugation at 16,000 g for 10 min at 4°C. Protein concentration was calculated using Bradford assay (Thermo Scientific). Immunoblotting and immunoprecipitation were performed using standard procedures. The signal was developed using ECL Western Blotting Detection Kit (Amersham) on Amersham Hyperfilm ECL film (Amersham).

ZR-75-1 cells = assay: Immunoblot of Akt/mTORC1 pathway markers (Akt, PRAS40, TSC2, S6K1, Rictor, S6, 4EBP1) in ZR-75-1 cells; assay type: cell-based, human; conditions: for Akt phosphorylation and PRAS40 phosphorylation: ZR-75-1 in serum, hVps34 inhibitor 1 h
Method: Kinase reactions are presented as means ± SD for triplicate reaction. Immunoprecipitates (IP) were also analysed by immunoblot with the indicated antibodies. • SGK3 was knocked down in ZR‐75‐1 cells by using shRNA probe B and compared to a control shRNA probe, named sh scramble. After infection, the cells were kept for 2 days in puromycin selection media and then seeded for the experiment. The cells were treated with 1 μM MK‐2206 for 1 h or 5 days. The cell lysates were subjected to immunoblot analysis with the indicated antibodies.
The cell lysates were analysed by immunoblot using the antibody against phosphorylated Akt phosphorylation consensus motif (RxRxxpS/pT).
as §4

Sequence of S6K1 (P23443 whole entry): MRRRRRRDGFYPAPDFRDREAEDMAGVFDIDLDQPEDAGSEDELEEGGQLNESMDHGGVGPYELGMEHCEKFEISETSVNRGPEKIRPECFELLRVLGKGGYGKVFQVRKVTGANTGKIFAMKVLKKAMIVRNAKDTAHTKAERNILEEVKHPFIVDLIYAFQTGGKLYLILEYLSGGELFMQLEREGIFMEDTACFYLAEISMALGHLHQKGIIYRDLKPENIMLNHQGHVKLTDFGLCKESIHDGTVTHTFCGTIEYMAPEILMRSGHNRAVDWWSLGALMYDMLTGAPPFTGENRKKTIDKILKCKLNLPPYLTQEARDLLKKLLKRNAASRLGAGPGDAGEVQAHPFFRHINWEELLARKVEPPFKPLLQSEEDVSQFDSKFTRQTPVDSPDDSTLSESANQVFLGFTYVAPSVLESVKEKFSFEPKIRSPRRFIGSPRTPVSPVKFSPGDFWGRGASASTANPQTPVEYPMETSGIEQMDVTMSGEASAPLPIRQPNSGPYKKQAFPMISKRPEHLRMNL

## Nc1[nH]nc2nc(-c3ccc(NS(=O)(=O)c4cc(Cl)ccc4F)cc3)cnc12 [14n]
S6K1
  IC50: 0.076 µM
PKBa
  IC50: > 10 µM
MLK1
  IC50: 0.169 µM
MLK3
  IC50: 0.094 µM
SGK3 [1]
  IC50: 0.013 µM

## CO[C@H]1C[C@@H]2CC[C@@H](C)[C@@](O)(O2)C(=O)C(=O)N2CCCC[C@H]2C(=O)O[C@H]([C@H](C)C[C@@H]2CC[C@@H](O)[C@H](OC)C2)CC(=O)[C@H](C)/C=C(\C)[C@@H](O)[C@@H](OC)C(=O)[C@H](C)C[C@H](C)/C=C/C=C/C=C/1C [rapamycin]
SGK3 [2]
  SGK3 hydrophobic motif and T-loop phosphorylation and SGK3 kinase activity: had no effect

## CCc1c(C(=O)NNC(=O)C(O)c2cc(F)cc(F)c2)ccc(O)c1C (stereo not shown) [EMD638683]
[3]
  dose required to observe marginal reduction in NDRG1 phosphorylation: 100 µM

## Nc1cc(C(F)(F)F)c(-c2cc(N3CCOCC3)nc(N3CCOCC3)n2)cn1 [BKM120]
[4]
  phosphorylation of PRAS40 (Thr246) and NDRG1 (Thr346): markedly suppressed

## COc1ccc(-c2ccc3c(N4CCOC[C@@H]4C)nc(N4CCOC[C@@H]4C)nc3n2)cc1CO [AZD8055]
SGK3 [2]
  SGK3 hydrophobic motif and T-loop phosphorylation and SGK3 kinase activity: suppressed

## C[C@@H]1COCCN1c1cc(=O)n2c(n1)N(Cc1cncc(Cl)c1)[C@H](C(F)(F)F)CC2 [SAR405]
ZR-75-1 cells
  Akt phosphorylation and PRAS40 phosphorylation: neither compound suppressed
[4]
  concentration reducing NDRG1 phosphorylation to basal levels: 0.3 µM
SGK3 [2]
  elevated SGK3 kinase activity, T-loop and hydrophobic motif phosphorylation induced by prolonged Class I PI3K or Akt inhibitor treatment: suppressed
  basal SGK3 activity and phosphorylation: to below control levels

## CC(C)(O)CNc1ncc(-c2ccnc(Nc3ccnc(Cl)c3)n2)c(CC2CC2)n1 [VPS34-IN1]
ZR-75-1 cells; ZR-75-1, 1 μM VPS34-IN1 alone, 1 h
  TSC2 or mTORC1 substrate phosphorylation: did not have an effect
ZR-75-1 cells
  Akt phosphorylation and PRAS40 phosphorylation: neither compound suppressed
[4]
  concentration reducing NDRG1 phosphorylation to basal levels: 1 µM
SGK3 [2]
  elevated SGK3 kinase activity, T-loop and hydrophobic motif phosphorylation induced by prolonged Class I PI3K or Akt inhibitor treatment: suppressed
  basal SGK3 activity and phosphorylation: to below control levels

## CS(=O)(=O)N1CCN(Cc2cc3nc(-c4cccc5[nH]ncc45)nc(N4CCOCC4)c3s2)CC1 [GDC0941]
[4]
  phosphorylation of PRAS40 (Thr246) and NDRG1 (Thr346): markedly suppressed
